Laboratory results from patent US10058544B2, “(S)-N-(3-(6-isopropoxypyridin-3-yl)-1H-indazol-5-yl)-1-(2-(4-(4-(1-methyl-1H-1,2,4-triazol-3-yl)phenyl)-3,6-dihydropyridin-1(2H)-yl)-2-oxoethyl)-3-(methylthio)pyrrolidine-3-carboxamide compositions for pharmaceutical preparations” (Merck Sharp & Dohme Corp., priority 2014, dated 2018).
Structures can show the parent of a compound that is named as a salt.

What was measured:
[1] = Physical form composition of active ingredient in tablets prepared using roller compaction; assay type: physicochemical
From the text: (S)—N-(3-(6-isopropoxypyridin-3-yl)-1H-indazol-5-yl)-1-(2-(4-(4-(1-methyl-1H-1,2,4-triazol-3-yl)phenyl)-3,6-dihydropyridin-1(2H)-yl)-2-oxoethyl)-3-(methylthio)pyrrolidine-3-carboxamide crystalline form 1 HCl was subjected to roller compaction in order to create a granular composition for subsequent use in preparing tablets of (S)—N-(3-(6-isopropoxypyridin-3-yl)-1H-indazol-5-yl)-1-(2-(4-(4-(1-methyl-1H-1,2,4-triazol-3-yl)phenyl)-3,6-dihydropyridin-1(2H)-yl)-2-oxoethyl)-3-(methylthio)pyrrolidine-3-carboxamide crystalline form 1 HCl.
Three tablets (RC-1, RC-2 and RC-3) having the following amounts (weight %) of ingredients were prepared using roller compaction.
The following procedure was followed: • 1. Blend colloidal silicon dioxide and (S)—N-(3-(6-isopropoxypyridin-3-yl)-1H-indazol-5-yl)-1-(2-(4-(4-(1-methyl-1H-1,2,4-triazol-3-yl)phenyl)-3,6-dihydropyridin-1(2H)-yl)-2-oxoethyl)-3-(methylthio)pyrrolidine-3-carboxamide crystalline form 1 HCl in a blender. • 2. Delump the blend using a screen. • 3. Blend lactose monohydrate, microcrystalline cellulose (Avicel 102), and disintegrant (croscarmellose sodium or crospovidone) with the delumped materials from step 2 using a blender. • 4. Add prescreened magnesium stearate lubricant to the blend of step 3 and blend. • 5. Roller compact the blend resulting from step 4 • 6. Screen the roller compacted ribbons through a mesh and add the resulting milled granules to a suitable bin. • 7. Add prescreened extragranular magnesium stearate lubricant to the bin and blend with the milled granules. • 8. Compress the final lubricated blend resulting from step 7 using a suitable rotary tablet press.
(§1) “LOD” refers to “limit of detection” and “<LOD” means the amount of indicated material, if any, was not detectable.

[2] = Physical form composition of active ingredient in tablets prepared using wet granulation; assay type: physicochemical
Method: Wet granulation of (S)—N-(3-(6-isopropoxypyridin-3-yl)-1H-indazol-5-yl)-1-(2-(4-(4-(1-methyl-1H-1,2,4-triazol-3-yl)phenyl)-3,6-dihydropyridin-1(2H)-yl)-2-oxoethyl)-3-(methylthio)pyrrolidine-3-carboxamide crystalline form 1 HCl was achieved using a high shear granulator. […] was alternatively achieved using a fluidized bed procedure.
Two tablets (1a and 1b) having the following amounts (weight %) of ingredients were prepared using wet granulation.
The following procedure was followed: • 1. Prepare a 20% binder solution by adding purified water and polyvinyl pyrrolidone K30 to a mixing vessel and stir until completely dissolved. • 2. Add lactose, microcrystalline cellulose (Avicel 102), (S)—N-(3-(6-isopropoxypyridin-3-yl)-1H-indazol-5-yl)-1-(2-(4-(4-(1-methyl-1H-1,2,4-triazol-3-yl)phenyl)-3,6-dihydropyridin-1(2H)-yl)-2-oxoethyl)-3-(methylthio)pyrrolidine-3-carboxamide crystalline form 1 HCl and a disintegrant (croscarmellose sodium or crospovidone) to a high shear granulator. • 3. Dry mix the ingredients using an impeller and chopper. • 4. Add the binder solution prepared in step 1 to the high shear granulator using a peristaltic pump and flexible tubing. • 5. Spray the binder solution to form wet granules. Additional mixing without spraying of the binder solution (also known as wet massing) may be used. • 6. Pass the wet granulation through a screen. • 7. Dry the granules using a tray dryer and dry heat. • 8. Pass the dried granules through a screen and add to a bin. • 9. Add extragranular disintegrant (croscarmellose sodium or crospovidone) to the materials in step 8 and blend. • 10. Add prescreened magnesium stearate lubricant to the bin and blend. • 11. Compress the lubricated blend resulting from step 10 using a suitable rotary tablet press. Fluidized Bed Granulation: • 1. Prepare a 20% binder solution by adding purified water and PVP K30 to a mixing vessel and stir until completely dissolved. • 2. Add lactose monohydrate, microcrystalline cellulose, (S)—N-(3-(6-isopropoxypyridin-3-yl)-1H-indazol-5-yl)-1-(2-(4-(4-(1-methyl-1H-1,2,4-triazol-3-yl)phenyl)-3,6-dihydropyridin-1(2H)-yl)-2-oxoethyl)-3-(methylthio)pyrrolidine-3-carboxamide crystalline form 1 HCl and croscarmellose sodium or crospovidone disintegrant to a fluid bed to form a mixture. • 3. Pre-heat the materials of step 2 using fluid air until the target bed temperature reaches 55°-60° C. • 4. Spray the binder solution prepared in step 1 onto the mixture resulting from step 2 to form wet granules. • 5. Fluidize and dry the wet granules resulting from step 4. • 6. Pass the dried granules through a screen and add to a bin • 7. Add extragranular croscarmellose sodium or crospovidone disintegrant to the dried granules and blend. • 8. Add prescreened magnesium stearate lubricant to the blend resulting from step 7 and blend. • 9. Compress the final lubricated blend using a suitable rotary tablet press.
as §1

[3] = share of total active ingredient
[4] = wet granulation tablets, <LOD = not detectable
[5] = wet granulation tablets, share of total active ingredient

- F-1 FB (crystalline form 1 free base) amount ([1]; <LOD = not detectable): <LOD
- Am FB (amorphous free base) amount [1, 3]: <LOD
- Am HCl (amorphous HCl) amount [1, 3]: 7%
- F-1 HCl (crystalline form 1 HCl) amount [1, 3]: 92%
- disproportionation of crystalline form 1 HCl ([2]; wet granulation processing (high shear or fluidized bed)): no disproportionation
- Am FB (amorphous free base) amount [2, 4]: LOD
- F-1 FB (crystalline form 1 free base) amount [2, 4]: LOD
- Am HCl (amorphous HCl) amount [2, 5]: 7%
- F-1 HCl (crystalline form 1 HCl) amount [2, 5]: 92%
Structure (SMILES): CS[C@@]1(C(=O)Nc2ccc3[nH]nc(-c4ccc(OC(C)C)nc4)c3c2)CCN(CC(=O)N2CC=C(c3ccc(-c4ncn(C)n4)cc3)CC2)C1 [F-1 HCl, (S)—N-(3-(6-isopropoxypyridin-3-yl)-1H-indazol-5-yl)-1-(2-(4-(4-(1-methyl-1H-1,2,4-triazol-3-yl)phenyl)-3,6-dihydropyridin-1(2H)-yl)-2-oxoethyl)-3-(methylthio)pyrrolidine-3-carboxamide crystalline form 1 HCl]
